# Measured values: publication PMC3976407, “Inhibition of Fatty Acid Binding Proteins Elevates Brain Anandamide Levels and Produces Analgesia” (PLoS ONE, 2014)
# Experiments:
# [1] = system: carrageenan-induced thermal hyperalgesia and paw edema in mice; assay: Carrageenan-induced paw edema and thermal hyperalgesia; assay type: in vivo, mouse; details: 20 mg/kg, i.p.
# Method: Paw edema was induced by injecting 1% λ-carrageenan (20 μl, in sterile saline) into the plantar surface of the left hind paw using a 30 gauge needle attached to a glass syringe (Hamilton Company). Paw diameters were measured before carrageenan injection and 4 or 24 hours after injection using digital electronic calipers (Fisher) and expressed to the nearest ± 0.01 mm. SBFI26, SBFI50, SBFI60, and SBFI62 were dissolved in DMSO:cremophor-EL:saline (4% DMSO:10% Cremophor-EL) and administered (20 mg/kg, i.p.) 60 min prior to injection of carrageenan. Receptor antagonists were injected 10 min before the inhibitors. Rimonabant and SR144528 (3 mg/kg, i.p.) were dissolved in ethanol:cremophor-EL:saline (1∶1∶18) while GW6471 (4 mg/kg, i.p.) was dissolved in DMSO:cremophor-EL:saline (2% DMSO:5% Cremophor-EL). Edema is reported as the change in paw diameter at 24 hr compared to the baseline. Thermal hyperalgesia was measured using the Hargreaves plantar apparatus (Ugo Basile) as previously reported.
# [2] = system: acetic acid-induced writhing in mice; assay: Acetic acid-induced writhing; assay type: in vivo, mouse
# Method: Mice were acclimated to the laboratory environment for at least two hours and were habituated to the testing chamber for 30 min prior to acetic acid challenge. SBFI26, SBFI50, SBFI60, and SBFI62 (20 mg/kg) were administered via the subcutaneous route 60 min before acetic acid. Rimonabant, SR144528, GW6471, and naloxone were given 10 min before the inhibitors via the subcutaneous route. The mice subsequently received an i.p. injection of acetic acid (0.6% in sterile saline, 10 μl/g) and were placed in observation chambers. Abdominal stretches (marked by extension of the body and hind limbs) were counted for 20 min starting at 5 min post-injection.
# rats subjected to CCI = assay: Rat neuropathic pain model (chronic constriction injury of the sciatic nerve); assay type: in vivo; details: 20 mg/kg i.p.
# From the text: Male Fisher 344 rats were habituated and pre-injury evoked responses were obtained. The Hargreaves test was used to assess thermal hyperalgesia. Briefly, plexiglass enclosures were set atop a plexiglass platform and infrared source set at 50% power located under the platform was used as the heat stimulus (Ugo Basile). A 200 mW, 535 nm diode laser was mounted in an adjustable stand placed beneath the plexiglass platform, and was used as an alternative heat stimulus for some of the animals in this study. The latency time to hind paw lift during heating of the plantar surface was recorded. Five recordings were obtained on each hind paw with at least 2 min rest between measurements. The maximum time for exposure to the infrared or diode laser source was 30.5 s to avoid any possible tissue injury. For mechanical threshold measurements, the animal enclosures rested on a screen with mesh of 0.5 cm spacing. Following acclimation, an electronic von Frey Anesthesiometer (IITC Life Sciences) was applied with increasing pressure to the plantar surface of the hind paw until the animals lifted the hind paw. The number of grams of force applied by the probe to induce withdrawal was recorded. Five recordings were obtained on each hind paw with at least 3 min between measurements. For CCI surgeries, our procedure closely followed that reported previously. Briefly, each animal received an i.p. injection of ketamine/xylazine (75 mg/kg and 10 mg/kg, respectively). The hind leg was surgically prepped and the anesthetized animal placed prone on an sterile towel over a heating pad. The temperature was monitored rectally. A skin incision was made mid-thigh with a medium curved scalpel and then scissors were used to expose the sciatic nerve. Approximately 1 cm of the main trunk proximal to the trifuraction was isolated and 4 strands of 4-0 chromic gut were tied around the nerve ∼ 1 mm apart under magnification. In a modification of the original method, a 2-0 prolene strand was placed between the nerve and the gut to which the suture was tightened. The prolene strand was then removed. This prevented over tightening and reduced subsequent motor paralysis. The muscle layers were then reopposed and sutured, and surgical staples were used to close the skin. On post-injury days 7 through 10, heat and mechanical measurements were obained for the ipsilateral hindpaw of each CCI animal. Immediately following the post-injury measurements, animals were randomized and received i.p. injections of vehicle or 20 mg/kg SBI26 (DMSO:cremophor:sterile saline 1∶1∶2 by volume). Up to 0.8 ml of drug or vehicle was injected. The observer was blinded as to administration of drug or vehicle. Thermal and mechanical measurements were performed at 1 and 4 h post-injection. Data were normalized to pre-injury baseline measurements for each animal.
# HeLa cells = assay: Cytotoxicity, MTT colorimetric assay; assay type: cell-based; details: 24 hr incubation, n = 3
# Method: Cytotoxicity of the FABP inhibitors SBFI26 and BMS309403 were examined using the MTT [3-(4,5-dimethylthiazol-2-yl)-2,5 diphenyl tetrazolium bromide] colorimetric assay. HeLa cells were seeded into 96-well plates (15,000 cells/well) and incubated for 24 hours at 37°C in DMEM supplemented with 10% FBS, penicillin (100 U/mL) and streptomycin (100 μg/mL). The cells were subsequently washed with PBS and treated with serum-free DMEM containing 10 nM to 1 mM SBFI26, BMS309403, or 5 mM hydrogen peroxide as a positive control. Following a 24 hr incubation, the cells were washed with PBS and treated with MTT (0.5 mg/mL in PBS) for 4 hrs. The cells were subsequently solubilized using DMSO and the absorbance was read at 562 nm in a microplate reader.
# CB1 = system: CB1; design: method as in PMID 23236415; details: previously demonstrated ref 31; cited from earlier work
# FABP3 = FABP3 (Homo sapiens, UniProt P05413); assay: NBD-stearate fluorescence displacement binding
# FABP3, sequence (P05413 whole entry, species assumed): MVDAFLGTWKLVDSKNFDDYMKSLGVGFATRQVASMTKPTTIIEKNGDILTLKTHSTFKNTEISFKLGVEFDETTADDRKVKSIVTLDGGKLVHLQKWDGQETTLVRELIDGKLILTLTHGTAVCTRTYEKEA
# Method: Inhibitory constant (Ki) values were elucidated utilizing NBD-stearate fluorescence displacement as described previously [9], [31]. The tests were performed in 96-well plates containing inhibitors (0.1 – 50.0 μM), FABP, and NBD-stearate. Fluorescence intensity was measured with a FLUOstar OPTIMA spectrofluorometer with excitation and emission wavelengths of 460 and 544 nm, respectively.
smiles,measurement,setting,value
"O=C(O)C1C(c2ccccc2)C(C(=O)Oc2cccc3ccccc23)C1c1ccccc1 (stereo not drawn) [SBFI26, alpha-2,4-diphenylcyclobutane-1,3-dicarboxylic acid mono-1-naphthyl ester]",Effect upon carrageenan-induced paw edema,[1],reduced
same,Effect upon carrageenan-induced thermal hyperalgesia,[1],reduced
same,Effect upon acetic acid-induced writhing,"[2]; 20 mg/kg, subcutaneous, 60 min before acetic acid",significantly reduced
same,Antinociceptive effects in the acetic acid test after pretreatment with PPARα antagonist GW6471,[2]; GW6471 4 mg/kg,blocked
same,Antinociceptive effects in the acetic acid test after pretreatment with CB2 antagonist SR144528,[2]; SR144528 3 mg/kg,failed to reverse
same,Dose of near maximal efficacy in acetic acid writhing,[2]; dose response analysis,20 mg/kg
same,Antinociceptive effects in the acetic acid test after pretreatment with opioid antagonist naloxone,[2]; naloxone 2 mg/kg,failed to reverse
same,Antinociceptive effects in the acetic acid test after pretreatment with CB1 antagonist rimonabant,[2]; rimonabant 3 mg/kg 10 min before inhibitor,completely blocked
same,Persistence of the effect on thermal hyperalgesia in CCI rats,rats subjected to CCI,up to 4 hrs
same,Effect on mechanical thresholds in CCI rats,rats subjected to CCI; 1 and 4 h,Neither compound altered
same,Effect on thermal hyperalgesia in CCI rats,rats subjected to CCI; measured 1 and 4 h post-injection,completely reversed
same,Cytotoxicity _50 values,HeLa cells,31.1 ± 4.1 µM
same,Activation of CB1,CB1,does not activate
same,Ki,FABP3,3.9 ± 0.7 µM
